Source: ChEMBL document CHEMBL5724914, “Linking interpersonal differences in gut microbiota composition and drug biotransformation activity” (2024)

Assays:
[1] = (§1) The drug is tested on Z-030 corresponding to mouse gut metagenome with ENA study accession number: PRJEB37062 and ENA sample accession number: ERS12561829 for biotransformation under anaerobic condition. The drug concentrations were measured over 9 timepoints collected between 0 and 24 hours of incubation by liquid-chromatography-coupled mass spectrometry (LC–MS); conditions: 2 µM
[2] = as §1, with “Z-029” for “Z-030”, “rat” for “mouse”, “ERS12561828” for “ERS12561829”; conditions: 2 µM
[3] = as §1, with “Z-027” for “Z-030”, “to” for “to mouse gut”, “ERS12561826” for “ERS12561829”; conditions: 2 µM
[4] = as §1, with “Z-018” for “Z-030”, “pig” for “mouse”, “ERS12561817” for “ERS12561829”; conditions: 2 µM
[5] = as §1, with “Z-014” for “Z-030”, “rat” for “mouse”, “ERS12561814” for “ERS12561829”; conditions: 2 µM
[6] = as §1, with “Z-009” for “Z-030”, “pig” for “mouse”, “ERS12561809” for “ERS12561829”; conditions: 2 µM
[7] = as §1, with “Z-008” for “Z-030”, “to” for “to mouse gut”, “ERS12561808” for “ERS12561829”; conditions: 2 µM
[8] = as §1, with “Z-007” for “Z-030”, “rat” for “mouse”, “ERS12561807” for “ERS12561829”; conditions: 2 µM
[9] = as §1, with “Z-003” for “Z-030”, “pig” for “mouse”, “ERS12561803” for “ERS12561829”; conditions: 2 µM
[10] = as §1, with “Z-001” for “Z-030”, “ERS12561801” for “ERS12561829”; conditions: 2 µM
[11] = as §1, with “WLS-370” for “Z-030”, “human” for “mouse”, “ERS12561793” for “ERS12561829”; conditions: 2 µM
[12] = as §1, with “WLS-098” for “Z-030”, “human” for “mouse”, “ERS12561754” for “ERS12561829”; conditions: 2 µM
[13] = as §1, with “WLS-082” for “Z-030”, “human” for “mouse”, “ERS12561751” for “ERS12561829”; conditions: 2 µM
[14] = as §1, with “WLS-069” for “Z-030”, “human” for “mouse”, “ERS12561748” for “ERS12561829”; conditions: 2 µM
[15] = human gut metagenome, 24 h, 2 µM
[16] = human gut metagenome, 24 h, 2 µM; remark: listed apart in the source
[17] = human gut metagenome, 24 h, 2 µM; remark: listed apart in the source
[18] = human gut metagenome, 24 h, 2 µM; remark: listed apart in the source
[19] = human gut metagenome, 24 h, 2 µM; remark: listed apart in the source
[20] = as §1, with “WLS-073” for “Z-030”, “human” for “mouse”, “ERS12561749” for “ERS12561829”; conditions: 2 µM
Note: call rule not given here.

Structure (SMILES) | Bacterial Biotransformation [1] | Bacterial Biotransformation [2] | Bacterial Biotransformation [3] | Bacterial Biotransformation [4] | Bacterial Biotransformation [5] | Bacterial Biotransformation [6] | Bacterial Biotransformation [7] | Bacterial Biotransformation [8] | Bacterial Biotransformation [9] | Bacterial Biotransformation [10] | Bacterial Biotransformation [11] | Bacterial Biotransformation [12] | Bacterial Biotransformation [13] | Bacterial Biotransformation [14] | Bacterial Biotransformation [15] | Bacterial Biotransformation [16] | Bacterial Biotransformation [17] | Bacterial Biotransformation [18] | Bacterial Biotransformation [19] | Bacterial Biotransformation [20]
COc1cc2nc(N3CCN(C(=O)C4COc5ccccc5O4)CC3)nc(N)c2cc1OC.CS(=O)(=O)O (centres undefined) [DOXAZOSIN MESYLATE] | Compound NOT metabolized | Compound NOT metabolized | Compound NOT metabolized | Compound metabolized | Compound NOT metabolized | Compound NOT metabolized | Compound NOT metabolized | Compound NOT metabolized | Compound NOT metabolized | Compound NOT metabolized | Compound metabolized | Compound metabolized | Compound metabolized | Compound metabolized | Compound metabolized | Compound NOT metabolized | Compound metabolized | Compound metabolized | Compound metabolized | –
CN1[C@@H]2CC[C@H]1C[C@@H](OC(=O)[C@H](CO)c1ccccc1)C2 [HYOSCYAMINE] | Compound NOT metabolized | Compound NOT metabolized | Compound NOT metabolized | Compound NOT metabolized | Compound NOT metabolized | Compound metabolized | – | Compound NOT metabolized | – | Compound NOT metabolized | – | Compound metabolized | – | – | – | Compound NOT metabolized | Compound metabolized | – | Compound metabolized | Compound NOT metabolized
COc1ccc(Cc2nccc3cc(OC)c(OC)cc23)cc1OC [PAPAVERINE] | Compound NOT metabolized | Compound NOT metabolized | Compound NOT metabolized | Compound metabolized | Compound NOT metabolized | Compound metabolized | Compound NOT metabolized | Compound NOT metabolized | Compound metabolized | Compound metabolized | Compound metabolized | – | – | Compound metabolized | Compound NOT metabolized | Compound metabolized | Compound metabolized | – | Compound metabolized | –
CSc1ccc2c(c1)C(N1CCN(C)CC1)Cc1ccccc1S2.O=C(O)/C=C\C(=O)O (centres undefined) | Compound NOT metabolized | Compound NOT metabolized | Compound metabolized | – | Compound NOT metabolized | Compound metabolized | Compound NOT metabolized | Compound metabolized | Compound metabolized | Compound metabolized | Compound NOT metabolized | Compound metabolized | – | – | Compound NOT metabolized | Compound NOT metabolized | Compound NOT metabolized | Compound NOT metabolized | Compound NOT metabolized | –
CC(=O)OCC(CCn1cnc2cnc(N)nc21)COC(C)=O [FAMCICLOVIR] | Compound NOT metabolized | Compound NOT metabolized | Compound NOT metabolized | – | Compound metabolized | Compound metabolized | Compound metabolized | Compound metabolized | Compound metabolized | Compound NOT metabolized | Compound metabolized | Compound metabolized | Compound metabolized | Compound metabolized | Compound metabolized | Compound metabolized | Compound metabolized | Compound metabolized | Compound metabolized | Compound metabolized
C#C[C@]1(OC(C)=O)CC[C@H]2[C@@H]3CCC4=CC(=O)CC[C@@H]4[C@H]3CC[C@@]21C [NORETHINDRONE ACETATE] | Compound NOT metabolized | Compound metabolized | Compound metabolized | Compound metabolized | – | Compound metabolized | Compound metabolized | – | Compound metabolized | Compound metabolized | Compound metabolized | Compound metabolized | – | Compound metabolized | Compound metabolized | Compound metabolized | Compound metabolized | Compound metabolized | Compound metabolized | Compound metabolized
CCc1cccc2c3c([nH]c12)C(CC)(CC(=O)O)OCC3 (centres undefined) [ETODOLAC] | Compound NOT metabolized | Compound NOT metabolized | Compound NOT metabolized | Compound metabolized | Compound NOT metabolized | Compound NOT metabolized | Compound NOT metabolized | Compound NOT metabolized | Compound NOT metabolized | Compound NOT metabolized | Compound metabolized | Compound metabolized | – | Compound metabolized | Compound metabolized | Compound metabolized | Compound metabolized | Compound metabolized | Compound metabolized | Compound NOT metabolized
Cc1cc2c(s1)Nc1ccccc1N=C2N1CCN(C)CC1 [OLANZAPINE] | Compound NOT metabolized | Compound NOT metabolized | Compound NOT metabolized | Compound NOT metabolized | Compound NOT metabolized | Compound NOT metabolized | Compound NOT metabolized | Compound NOT metabolized | Compound metabolized | Compound metabolized | Compound NOT metabolized | – | Compound NOT metabolized | Compound NOT metabolized | Compound NOT metabolized | Compound NOT metabolized | Compound NOT metabolized | Compound NOT metabolized | – | –
CCOC(=O)[C@H](CCc1ccccc1)N[C@@H](C)C(=O)N1CCC[C@H]1C(=O)O.O=C(O)/C=C\C(=O)O [ENALAPRIL MALEATE] | Compound NOT metabolized | Compound NOT metabolized | Compound NOT metabolized | – | – | Compound metabolized | Compound NOT metabolized | Compound NOT metabolized | Compound NOT metabolized | Compound NOT metabolized | Compound NOT metabolized | Compound NOT metabolized | Compound NOT metabolized | Compound NOT metabolized | Compound NOT metabolized | Compound NOT metabolized | Compound NOT metabolized | Compound NOT metabolized | Compound NOT metabolized | Compound NOT metabolized
